Laboratory results published in patent US8609610B2, “Inhibitors of the trypsin-like site of the proteasome and methods of use thereof” (Trustees of Dartmouth College, priority 2011, dated 2013).
Structures can show the parent of a compound that is named as a salt.

Columns and labels:
[1] = target: caspase-like site of 26S proteasomes (Oryctolagus cuniculus, UniProt A0A5F9DQW2); test: Inhibition of purified 26S proteasomes, substrate Ac-nLPnLD-amc; assay type: biochemical, rabbit; conditions: >>30 no inhibition at 30 μM, >30 inhibition between 10 and 50% at 30 μM, read-out: IC50 for sites in 26S proteasomes: Casp-L
Sequence of caspase-like site of 26S proteasomes (A0A5F9DQW2 1-212): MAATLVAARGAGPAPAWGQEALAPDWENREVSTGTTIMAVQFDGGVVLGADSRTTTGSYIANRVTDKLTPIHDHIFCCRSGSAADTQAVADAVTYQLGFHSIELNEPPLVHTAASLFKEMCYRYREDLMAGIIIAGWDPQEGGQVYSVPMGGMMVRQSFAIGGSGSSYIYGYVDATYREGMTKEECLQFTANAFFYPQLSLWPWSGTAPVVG
Protocol: (§1) 26S proteasomes were purified from rabbit muscle using known methods (Screen, et al. (2010) supra). […] NOVEX Bis-Tris gels (12%, Invitrogen) with MOPS running buffer were used for electrophoretic separation of catalytic subunits modified by active-site probes. Inhibition of active sites inside cells was assayed using luminescent PROTEASOMEGLO assay (Promega; Moravec, et al. (2009) Anal. Biochem. 387:294-302) according to known methods (Britton, et al. (2009) supra).

[2] = tested on: trypsin-like site of 26S proteasomes; test: Inhibition of purified 26S proteasomes, substrate Ac-RLR-amc; assay type: biochemical, rabbit; conditions: for IC50 (Chym-L)/IC50 (Tr-L): rabbit 26S proteasomes
[3] = tested on: trypsin-like sites (β2) of proteasome in MM cells; test: PROTEASOMEGLO assay of proteasome inhibition in MM cells; assay type: cell-based
Protocol: Proteasome inhibition in MM cells was measured with luminogenic substrates using PROTEASOMEGLO assay (Promega). […] An aliquot of culture was pelleted and medium was removed and replaced with PBS. The resulting cell suspension was mixed with luminogenic substrates in the manufacturer-provided lysis/assay buffer. After 3 minutes mixing on an orbital shaker, the plate was incubated in the dark for additional 17 minutes, followed by the measurements of the luminescence, performed in triplicate for each substrate/data point. Data were analyzed as for purified proteasomes. […] Cells (1×10^6 per well of a 6-well plate) were incubated with the inhibitors for 4 hours at 37° C. and this was followed by a 2 hour incubation with 5 μM BODIPY-TMR-epoxomicin. Subsequently, the medium was removed and the cells were washed with PBS and harvested. […] The supernatant was collected and the protein concentration was determined by the Bradford assay, and used to normalize gel loading. The samples were analysed by SDS-PAGE and fluorescent densitometry as described for competition experiment in cell lysates. IC50 values were calculated from three independent experiments using […] PRISM software.

Cathepsin B, H, L, S = test: Cathepsin activity with pan-cathepsin substrate Z-FR-amc; assay type: cell-based; conditions: NCI-H929 cells, 6 hour treatment
Protocol: Cathepsin B, H, L, S activity was measured with pan-cathepsin substrate Z-FR-amc (Kirschke & Wiederanders (1994) Methods Enzymol. 244:500-11) in extracts of cytosol-less cells at pH 6.0 (Screen, et al. (2010) supra). Cathepsin D activity was measured in cytosol-less extracts using SENSOLYTE 520 Cathepsin D Fluorometric Assay Kit (AnaSpec). Combined cathepsin D and E activity was measured using the same kit, in which cathepsin D substrate provided with the kit was replaced with 7-Methoxycoumarin-[…](Dnp)-X′-NH2 (SEQ ID NO:10; where “X′” stand for D-Arg) internally quenched fluorogenic substrate of cathepsin D and E. In this case, pH 3.0 assay buffer used for cell extraction. All activity observed using both procedures was inhibited by more than 98% by specific inhibitor of aspartic proteases pepstatin A.

[4] = target: T1, chymotrypsin-like site of 26S proteasomes (Oryctolagus cuniculus, UniProt G1T4Q9); test: Inhibition of purified 26S proteasomes, substrate Suc-LLVY-amc; assay type: biochemical, rabbit; conditions: >>30 no inhibition at 30 μM, >30 inhibition between 10 and 50% at 30 μM, read-out: IC50 for sites in 26S proteasomes: Chym-L
T1 sequence (G1T4Q9 1-263): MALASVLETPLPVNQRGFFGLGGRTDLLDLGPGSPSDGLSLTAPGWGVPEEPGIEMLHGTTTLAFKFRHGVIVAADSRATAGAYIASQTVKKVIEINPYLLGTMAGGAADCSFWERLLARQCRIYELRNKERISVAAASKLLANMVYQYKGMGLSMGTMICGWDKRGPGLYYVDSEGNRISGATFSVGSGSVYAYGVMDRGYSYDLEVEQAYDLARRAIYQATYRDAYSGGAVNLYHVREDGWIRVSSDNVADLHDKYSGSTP
Protocol: as §1

[5] = target: T2, trypsin-like site of 26S proteasomes (Oryctolagus cuniculus, UniProt G1SWK8); test: Inhibition of purified 26S proteasomes, substrate Ac-RLR-amc; assay type: biochemical, rabbit; conditions: purified 26S proteasomes; >>30 no inhibition at 30 μM, >30 inhibition between 10 and 50% at 30 μM; read-out: IC50 for sites in 26S proteasomes: Tr-L
T2 construct: IC50 for sites in 26S proteasomes: Tr-L; other: purified 26S proteasomes; other: 26S proteasomes from rabbit muscles
T2 sequence (G1SWK8 1-271): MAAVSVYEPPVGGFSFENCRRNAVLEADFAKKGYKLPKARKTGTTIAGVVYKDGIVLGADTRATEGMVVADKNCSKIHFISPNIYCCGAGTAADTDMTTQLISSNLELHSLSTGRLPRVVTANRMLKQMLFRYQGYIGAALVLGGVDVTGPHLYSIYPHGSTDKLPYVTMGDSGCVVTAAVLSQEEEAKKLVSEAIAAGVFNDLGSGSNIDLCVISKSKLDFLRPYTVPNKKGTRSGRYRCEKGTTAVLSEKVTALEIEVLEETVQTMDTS

RPMI-8226 cells = test: ALAMAR BLUE cell viability assay; assay type: cell-based; conditions: E-64d 10 μM
Protocol: RPMI-8226 and NCI-H929 cells were cultured in RPMI-1640 supplemented with 10% fetal bovine serum, penicillin, streptomycin, and plasmocin in 5% CO2 humidified incubator. HEK-293T cells were cultured in DMEM containing 10% fetal calf serum, 10 units/mL penicillin, and 10 μg/mL streptomycin in a 7% CO2 humidified incubator. Viability of multiple myeloma cells was measured with ALAMAR BLUE mitochondrial dye conversion assay. Viability of peripheral blood mononuclear cells (PBMNCs) was measured using CELL TITER-GLO luminescent cell viability assay (Promega), which is based on quantification of ATP present in the cells. Caspase-3/7 activity was measured using APO-ONE 3/7 homogeneous assay (Promega).

β5 proteasome subunit = target: T3, β5 proteasome subunit (Homo sapiens, UniProt P20618+P28074); test: Competition assay in HEK-293T cell lysate with MV151; assay type: biochemical; conditions: HEK293 extracts
T3 construct: Whole cell lysates of HEK-293T or EL-4 cells were made by sonication; endogenous in cells; host or cells: HEK-293T
Protocol: Whole cell lysates of HEK-293T or EL-4 cells were made by sonication in 3 volumes of lysis buffer containing 50 mM Tris pH 7.5, 1 mM DTT, 5 mM MgCl2, 250 mM sucrose, 2 mM ATP, 0.025% digitonin. Protein concentration was determined by the Bradford assay. Cell lysates (13.5 μg total protein for HEK lysates and 9 μg total protein for EL-4 lysates) were exposed to the inhibitors for 1 hour at 37° C. prior to incubation with MV151 (0.5 μM) or BODIPY-TMR-epoxomicin (0.5 μM) for an additional 1 hour at 37° C. Reaction mixtures were boiled with Laemmli's buffer containing (3-mercaptoethanol for 5 minutes before being resolved by 12.5% SDS-PAGE. In-gel detection of residual proteasome activity was performed in the wet gel slabs directly on the TYPHOON Variable Mode Imager (Amersham Biosciences) using the Cy3/Tamra settings (λex 532 nm, λem 560 nm) to detect MV151, BODIPY-TMR-epoxomicin and Cy2/Fam settings (λex 488 nm, λem 520 nm) to detect compounds 39 and 59.
The inhibition potential of the inhibitors for each of the catalytically active subunits was assessed in competition assays employing extracts of human embryonic kidney cells (HEK-293T) and mouse lymphoma cells (EL-4) in combination with the fluorescent broad spectrum proteasome probe MV151 (Verdoes, et al. (2006) Chem. Biol. 13:1217-1226). Competitive inhibition of a proteasome active site is reflected by the disappearance of the corresponding band on a gel.

Row | Compound | IC50 [1] [µM] | IC50 (Chym-L)/IC50 (Tr-L) [2] | IC50 [4] [µM] | IC50 [5] [µM] | also measured
1 | CC(C)C[C@H](NC(=O)[C@H](Cc1ccc(CN)cc1)NC(=O)[C@H](Cc1ccccc1)N=[N+]=[N-])C(=O)N[C@H](/C=C/S(C)(=O)=O)Cc1ccncc1 [Compound 54, N3-Phe-Phe (4-CH2NH2)-Leu-Ala (4 pyridine)-VS] | > 30 | 9.1 |  |  | 
2 | CC(C)C[C@H](NC(=O)[C@H](Cc1ccc(N)cc1)NC(=O)[C@H](Cc1ccccc1)N=[N+]=[N-])C(=O)N[C@H](/C=C/S(C)(=O)=O)Cc1ccc(CN)cc1 [Compound 51, N3-Phe-Phe (4-NH2. TFA)-Leu-Phe (4-CH2NH2.TFA)-VS] |  |  | 3.4 | 0.03 | difference in IC50 for trypsin-like activity between NCI-H929 and RPMI-8226 [3]: five-fold; inhibition of cathepsins (Z-FR-amc) (Cathepsin B, H, L, S): behaved similarly to 4a
3 | CC(C)C[C@H](NC(=O)[C@H](Cc1ccncc1)NC(=O)[C@H](Cc1ccccc1)N=[N+]=[N-])C(=O)N[C@H](/C=C/S(C)(=O)=O)Cc1ccc(CN)cc1 [Compound 50, N3-Phe-Ala (4-pyridine)-Leu-Phe (4-CH2NH2-TFA)-VS] |  |  |  |  | inhibition of cathepsins (Z-FR-amc) (Cathepsin B, H, L, S): partly reduced cathepsin activity
4 | CC(C)C[C@H](NC(=O)[C@H](Cc1ccccc1)N=[N+]=[N-])C(=O)N[C@@H](CC(C)C)C(=O)N[C@@H](Cc1ccc(N)cc1)C(=O)[C@@]1(C)CO1 [Compound 45b, N3-Phe-Leu-Leu-Phe(4-NH2)-EK] | > 30 |  | 0.01 |  | 
5 | CC(C)C[C@H](NC(=O)[C@H](Cc1ccccc1)N=[N+]=[N-])C(=O)N[C@@H](CC(C)C)C(=O)N[C@H](/C=C/S(C)(=O)=O)Cc1ccc(N)cc1 [Compound 45a, N3-Phe-Leu-Leu-Phe(4-NH2)-VS] | 23 |  | 0.04 | 0.11 | 
6 | CCOC(=O)[C@H]1O[C@@H]1C(=O)N[C@@H](CC(C)C)C(=O)NCCC(C)C [Compound E-64d] |  |  |  |  | sensitization to carfilzomib (RPMI-8226 cells): did not sensitize cells to carfilzomib
7 | CC(C)C[C@H](NC(=O)[C@H](Cc1ccccc1)N=[N+]=[N-])C(=O)N[C@@H](CC(C)C)C(=O)N[C@H](/C=C/S(C)(=O)=O)CCCCN [Compound 47, N3-Phe-Leu-Leu-Lys-VS] | > 30 |  |  |  | 
8 | CC(C)C[C@H](NC(=O)[C@H](Cc1ccc(CN)cc1)NC(=O)[C@H](Cc1ccccc1)N=[N+]=[N-])C(=O)N[C@H](/C=C/S(C)(=O)=O)Cc1ccc(N)cc1 [Compound 53, N3-Phe-Phe (4-CH2NH2)-Leu-Phe (4-NH2)—VS] | > 30 | 59 |  |  | 
9 | CC(C)C[C@H](NC(=O)[C@H](Cc1ccccc1)NC(=O)[C@H](Cc1ccccc1)N=[N+]=[N-])C(=O)N[C@H](/C=C/S(C)(=O)=O)Cc1ccccc1 [Compound 58, N3-Phe-Phe-Leu-Phe-VS] | > 30 |  |  | > 30 | 
10 | CC(C)C[C@@H](/C=C/S(C)(=O)=O)NC(=O)[C@H](CC(C)C)NC(=O)[C@H](Cc1ccc(CN)cc1)NC(=O)[C@H](Cc1ccccc1)N=[N+]=[N-] [Compound 55, N3-Phe-Phe(4-CH2NH2.TFA)-Leu-Leu-VS] |  | 0.057 | 0.01 |  | 
11 | Cc1c(O)cccc1C(=O)N[C@H](C(=O)N[C@@H](CO)C(=O)N[C@H](/C=C/S(C)(=O)=O)Cc1ccc(N)cc1)C(C)C [Compound 49, HMB-Val-Ser-Phe(4-NH2)-VS] | 23 | 0.36 | 0.04 | 0.11 | 
12 | CC(C)C[C@@H](/C=C/S(C)(=O)=O)NC(=O)[C@H](CC(C)C)NC(=O)[C@H](Cc1ccc(N)cc1)NC(=O)[C@H](Cc1ccccc1)N=[N+]=[N-] [Compound 56, N3-Phe-Phe(4-NH2-TFA)-Leu-Leu-VS] | > 30 | <0.00017 | < 0.004 | 24 | inhibition of chymotrypsin-like sites in extracts versus purified proteasomes (β5 proteasome subunit): less potently and selectively in extracts than in purified proteasomes
13 | CC(C)C[C@H](NC(=O)[C@H](Cc1ccccc1)N=[N+]=[N-])C(=O)N[C@@H](CC(C)C)C(=O)N[C@H](/C=C/S(C)(=O)=O)Cc1ccncc1 [Compound 46, N3-Phe-Leu-Leu-Ala(4-pyridine)-VS] | > 30 |  | < 0.1 |  | 
14 | CC(C)C[C@H](NC(=O)[C@H](Cc1ccccc1)N=[N+]=[N-])C(=O)N[C@@H](CC(C)C)C(=O)N[C@@H](Cc1ccc(CN)cc1)C(=O)[C@@]1(C)CO1 [Compound 4b, N3Phe-Leu-Leu-Phe(4-CH2NH2)EK] | 11 |  |  | 0.25 | 
15 | CC(C)C[C@@H](/C=C/S(C)(=O)=O)NC(=O)[C@H](CC(C)C)NC(=O)[C@H](Cc1ccncc1)NC(=O)[C@H](Cc1ccccc1)N=[N+]=[N-] [Compound 57, N3-Phe-Ala(4-pyridine)-Leu-Leu-VS] | > 30 | 0.00021 |  | 24 | inhibition of chymotrypsin-like sites in extracts versus purified proteasomes (β5 proteasome subunit): less potently and selectively in extracts than in purified proteasomes
16 | BODIPY-triazole-Phe-Phe(4-CH2NH2.TFA)-Leu-Phe(4-CH2NH2.TFA)-VS [Compound 59] |  |  |  |  | specificity after attachment of BODIPY-FL dye [2]: reduced the specificity
